Laboratory results published in patent publication US7138361B2, “Herbicidal heterocycles” (E. I. du Pont de Nemours and Company, priority 2000, dated 2006).

How the values were obtained:
Assay type in all cases: in vivo
[1] = system: barnyardgrass (Echinochloa crus-galli); assay: Test A postemergence, sprayed to runoff; settings: approx. eleven days
Procedure: (§1) Seeds of barnyardgrass (Echinochloa crus-galli), crabgrass (Digitaria spp.), giant foxtail (Setaria viridis), morning glory (Ipomoea spp.), redroot pigweed (Amaranthus retroflexus) and velvetleaf (Abutilon theophrasti) were planted into a sandy loam soil and treated preemergence by soil drench with test chemicals formulated in a non-phytotoxic solvent mixture which included a surfactant. At the same time, these crop and weed species were also treated postemergence sprayed to runoff with test chemicals formulated in the same manner. Plants ranged in height from two to eighteen cm and were in the one- to two-leaf stage for the postemergence treatment. Treated plants and untreated controls were maintained in a greenhouse for approximately eleven days, after which time all treated plants were compared to untreated controls and visually evaluated for injury. Plant response ratings, summarized in Table A, are based on a 0 to 10 scale where 0 is no effect and 10 is complete control. A dash (-) response means no test results.

[2] = system: crabgrass (Digitaria spp.); assay: Test A postemergence, sprayed to runoff; settings: approx. eleven days
Procedure: as §1

[3] = system: giant foxtail (Setaria viridis); assay: Test A postemergence, sprayed to runoff; settings: approx. eleven days
Procedure: as §1

[4] = system: redroot pigweed (Amaranthus retroflexus); assay: Test A postemergence, sprayed to runoff; settings: approx. eleven days
Procedure: as §1

[5] = system: barnyardgrass (Echinochloa crus-galli); assay: Test A preemergence, soil drench; settings: approx. eleven days
Procedure: as §1

[6] = system: crabgrass (Digitaria spp.); assay: Test A preemergence, soil drench; settings: approx. eleven days
Procedure: as §1

[7] = system: giant foxtail (Setaria viridis); assay: Test A preemergence, soil drench; settings: approx. eleven days
Procedure: as §1

[8] = system: morning glory (Ipomoea spp.); assay: Test A preemergence, soil drench; settings: Morningglory, approx. eleven days
Procedure: as §1

[9] = system: redroot pigweed (Amaranthus retroflexus); assay: Test A preemergence, soil drench; settings: approx. eleven days
Procedure: as §1

[10] = system: velvetleaf (Abutilon theophrasti); assay: Test A preemergence, soil drench; settings: approx. eleven days
Procedure: as §1

| Structure (SMILES) | Plant response rating (visual injury vs untreated controls) ([1]; Rate 500 g/ha) | Plant response rating (visual injury vs untreated controls) ([1]; Rate 2000 g/ha) | Plant response rating (visual injury vs untreated controls) ([2]; Rate 500 g/ha) | Plant response rating (visual injury vs untreated controls) ([2]; Rate 2000 g/ha) | Plant response rating (visual injury vs untreated controls) ([3]; Rate 500 g/ha) | Plant response rating (visual injury vs untreated controls) ([3]; Rate 2000 g/ha) | Plant response rating (visual injury vs untreated controls) ([4]; Rate 500 g/ha) | Plant response rating (visual injury vs untreated controls) ([4]; Rate 2000 g/ha) | Plant response rating (visual injury vs untreated controls) ([5]; Rate 500 g/ha) | Plant response rating (visual injury vs untreated controls) ([5]; Rate 2000 g/ha) | Plant response rating (visual injury vs untreated controls) ([6]; Rate 500 g/ha) | Plant response rating (visual injury vs untreated controls) ([6]; Rate 2000 g/ha) | Plant response rating (visual injury vs untreated controls) ([7]; Rate 500 g/ha) | Plant response rating (visual injury vs untreated controls) ([7]; Rate 2000 g/ha) | Plant response rating (visual injury vs untreated controls) ([8]; Rate 500 g/ha) | Plant response rating (visual injury vs untreated controls) ([8]; Rate 2000 g/ha) | Plant response rating (visual injury vs untreated controls) ([9]; Rate 500 g/ha) | Plant response rating (visual injury vs untreated controls) ([9]; Rate 2000 g/ha) | Plant response rating (visual injury vs untreated controls) ([10]; Rate 500 g/ha) | Plant response rating (visual injury vs untreated controls) ([10]; Rate 2000 g/ha) | further results |
| --- | --- | --- | --- | --- | --- | --- | --- | --- | --- | --- | --- | --- | --- | --- | --- | --- | --- | --- | --- | --- | --- |
| O=C1C(n2ccc(C3CC3)n2)OCN1c1cccc(C(F)(F)F)c1 (stereo not drawn) [Compound 28] | 60 | 60 | 20 | 40 | 80 | 90 | 20 | 80 | 100 | 100 | 90 | 100 | 100 | 100 | 0 | 0 | 100 | 100 | 10 | 10 | – |
| CC(C)(C)c1ccn(C2CCN(c3cccc(I)c3)C2=O)n1 (stereo not drawn) [Compound 88] | 30 | 80 | 20 | 40 | 40 | 90 | 80 | 100 | 40 | 100 | 80 | 100 | 70 | 100 | 0 | 30 | 100 | 100 | 0 | 30 | – |
| CC(C)c1ccn(C2OCN(c3cccc(C(F)(F)F)c3)C2=O)n1 (stereo not drawn) [Compound 27] | 70 | 80 | 20 | 60 | 50 | 90 | 20 | 80 | 100 | 100 | 100 | 90 | 100 | 100 | 0 | 20 | 100 | 100 | 20 | 10 | – |
| CC(C)(C)c1ccn(C2CCN(c3cccc(C(F)(F)F)c3)C2=O)n1 (stereo not drawn) [Example 3, 3-[3-(1,1-dimethylethyl)-1H-pyrazol-1-yl]-1-[3-(trifluoromethyl)phenyl]-2-pyrrolidinone] | – | – | – | – | – | – | – | – | – | – | – | – | – | – | – | – | – | – | – | – | Plant response rating (visual injury vs untreated controls) ([1]; Rate 250 g/ha): 20; Plant response rating (visual injury vs untreated controls) ([1]; Rate 1000 g/ha): 10; Plant response rating (visual injury vs untreated controls) ([2]; Rate 250 g/ha): 0; Plant response rating (visual injury vs untreated controls) ([2]; Rate 1000 g/ha): 0; Plant response rating (visual injury vs untreated controls) ([3]; Rate 250 g/ha): 0; Plant response rating (visual injury vs untreated controls) ([3]; Rate 1000 g/ha): 10; Plant response rating (visual injury vs untreated controls) ([4]; Rate 250 g/ha): 60; Plant response rating (visual injury vs untreated controls) ([4]; Rate 1000 g/ha): 10; Plant response rating (visual injury vs untreated controls) ([5]; Rate 250 g/ha): 100; Plant response rating (visual injury vs untreated controls) ([5]; Rate 1000 g/ha): 100; Plant response rating (visual injury vs untreated controls) ([6]; Rate 250 g/ha): 100; Plant response rating (visual injury vs untreated controls) ([6]; Rate 1000 g/ha): 100; Plant response rating (visual injury vs untreated controls) ([7]; Rate 250 g/ha): 100; Plant response rating (visual injury vs untreated controls) ([7]; Rate 1000 g/ha): 100; Plant response rating (visual injury vs untreated controls) ([8]; Rate 250 g/ha): 0; Plant response rating (visual injury vs untreated controls) ([8]; Rate 1000 g/ha): 0; Plant response rating (visual injury vs untreated controls) ([9]; Rate 250 g/ha): 100; Plant response rating (visual injury vs untreated controls) ([9]; Rate 1000 g/ha): 100; Plant response rating (visual injury vs untreated controls) ([10]; Rate 250 g/ha): 0; Plant response rating (visual injury vs untreated controls) ([10]; Rate 1000 g/ha): 0 |
| CC(C)(C)c1ccn(C2OCN(c3cccc(C(F)(F)F)c3)C2=O)n1 (stereo not drawn) [compound 9] | 80 | 90 | 20 | 10 | 30 | 100 | 20 | 80 | 100 | 100 | 90 | 100 | 100 | 100 | 0 | 0 | 100 | 100 | 20 | 10 | – |
| CCC(C)c1nn(C2CCN(c3cccc(C(F)(F)F)c3)C2=O)cc1Cl (stereo not drawn) [Compound 13] | 0 | 0 | 0 | 0 | 0 | 0 | 20 | 70 | 0 | 10 | 0 | 80 | 20 | 90 | 0 | 20 | 80 | 100 | 0 | 0 | – |
